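Step 1: Grow cells in 96-well plates. Step 2: Expose to compound for 48 hours at 5 concentrations. Step 3: Interpolate endpoints linearly; if unreached, use highest concentration. At the GI50, growth is halved. TGI denotes the concentration required for complete inhibition of growth.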
How the values were obtained:
Experiment in all cases: growth of human tumour cells (NCI), 48 h
HOP-92 NSCLC = test system: HOP-92 NSCLC
HS 578T breast = test system: HS 578T breast
IGROV1 ovarian = test system: IGROV1 ovarian
K-562 leukemia = test system: K-562 leukemia
LOX IMVI melanoma = test system: LOX IMVI melanoma
MCF7 breast = test system: MCF7 breast
MOLT-4 leukemia = test system: MOLT-4 leukemia
SF-268 CNS = test system: SF-268 CNS

| Compound | GI50 (HOP-92 NSCLC) | TGI (HOP-92 NSCLC) | GI50 (HS 578T breast) | TGI (HS 578T breast) | GI50 (IGROV1 ovarian) | TGI (IGROV1 ovarian) | GI50 (K-562 leukemia) | TGI (K-562 leukemia) | GI50 (LOX IMVI melanoma) | TGI (LOX IMVI melanoma) | GI50 (MCF7 breast) | TGI (MCF7 breast) | GI50 (MOLT-4 leukemia) | TGI (MOLT-4 leukemia) | GI50 (SF-268 CNS) | TGI (SF-268 CNS) |
| --- | --- | --- | --- | --- | --- | --- | --- | --- | --- | --- | --- | --- | --- | --- | --- | --- |
| c1cnn2ncc(-c3ccnc(NCCCN4CCOCC4)n3)c2c1 | 5.08 µM | 17.4 µM | 6.2 µM | > 23.1 µM | 7.51 µM | > 25 µM | > 22.4 µM | > 25 µM | 5.18 µM | > 25 µM | 5.97 µM | > 19 µM | 9.61 µM | > 25 µM | 6.39 µM | > 23.3 µM |
| O=C(NN1C(=O)CSC12CCCCC2)c1[nH]c2ccc(Br)cc2c1-c1ccccc1 | 20.7 µM | 42.3 µM | 23.1 µM | 66.1 µM | 11.3 µM | 28.6 µM | 13.4 µM | 56.6 µM | 22 µM | 50.3 µM | 14.6 µM | 31.5 µM | 8.79 µM | 46.9 µM | 20.3 µM | 67.1 µM |
| COc1ccc(-c2cc(-c3ccc(C)cc3)nc3nc(=S)[nH]c(N)c23)cc1 | 15.5 µM | 75.5 µM | 17.9 µM | 46.9 µM | 28.2 µM | 78.4 µM | 15.1 µM | 36.5 µM | 17.7 µM | 34.5 µM | 15.8 µM | 69.4 µM | 35.6 µM | 72.3 µM | 17.5 µM | 35.5 µM |
| CC1=C2[C@@H](CC1)[C@]1(C)O[C@@](c3ccccc3)(C[C@H]1OC(=O)CO)[C@H]2OC(=O)/C=C/c1ccccc1 | 13.7 µM | 29.7 µM | 0.0309 µM | 0.961 µM | 24.3 µM | 62.4 µM | 14 µM | 61.9 µM | 15.9 µM | 32.3 µM | 8.86 µM | 32.1 µM | 13 µM | 45.1 µM | 2.78 µM | 32.5 µM |
| COc1cccc(OC(=O)c2ccc(C(F)(F)F)nc2Nc2cc(Cl)ccc2C)c1 | 1.63 µM | 6.98 µM | 1.23 µM | 4.79 µM | 8.35 µM | > 100 µM | 3.13 µM | 9.36 µM | 3.68 µM | 23.8 µM | 4.2 µM | > 100 µM | 3.11 µM | 7.99 µM | 4.38 µM | > 100 µM |
| OCC1OC(n2cnc3c(N/N=C\c4ccccn4)ncnc32)C(O)C1O (centres undefined) |  |  | 1.78 µM | > 51.4 µM | 0.41 µM | 8.98 µM | 0.368 µM | > 100 µM | 0.0971 µM |  | 0.122 µM | > 100 µM | 0.0532 µM | > 100 µM | 0.167 µM | 1 µM |
| CCOc1ccccc1C(=O)N1CCN(c2cc(Cl)cc(Cl)c2)CC1 | 0.182 µM | 12.9 µM | 0.0327 µM | 16.4 µM | 0.0408 µM | 13.9 µM | 0.0286 µM | 25.8 µM | 0.031 µM | 13.1 µM | 0.0321 µM | 12.2 µM | 0.0424 µM | 21 µM | 0.112 µM | 18.7 µM |
